Source: patent US6911432B2, “Drugs, foods or drinks with the use of algae-derived physiologically active substances” (priority 1997, dated 2005)

Assays:
RAW 264.7 cells = test: NO production induced by LPS, NO2- concentration in medium; format: cell-based, mouse; conditions: for inhibition of NO production (in words): RAW264.7, aqueous 100 mM solution used as sample
Procedure: (1) RAW 264.7 cells (ATCC TIB 71) were suspended in phenol red-free Dulbecco's modified Eagle's medium containing 10% fetal bovine serum (manufactured by Gibco) and 2 mM L-glutamine (manufactured by Life Technologies Oriental, 25030-149) at a concentration of 3×10^5 cells/ml, and 500 μl portions thereof were seeded to respective wells of a 48-well microtiter plate and incubated at 37° C. for 12 hours in the presence of 5% CO2. To each well were added 10 μl of 25 μg/ml lipopolysaccharide (LPS, manufactured by Sigma, L-2012) and 10 μl of aqueous 5000, 1500, 500, 150 or 50 μM agarobiose or neoagarobiose (manufactured by Sigma, G4410) solution, and the plate was incubated for additional 12 hours. Then, concentration of NO2^− produced by oxidation of NO in the medium was measured. As control groups, a group to which LPS was not added and a group to which agarobiose or neoagarobiose was not added were provided.
After incubating as described above, 100 μl of 4% Greece reagent (manufactured by Sigma, G4410) was added to 100 μl of the medium, and the mixture was allowed to stand for 15 minutes at room temperature. Then, the absorbance at 490 nm was measured. NO2^− concentration in the medium was calculated with reference to a calibration curve prepared by using NaNO2 at given concentrations dissolved in the same medium as that described above. All the measurements were carried out in triplicate.
(2) A suspension of 5 g of commercially available agar (Ina agar type S-7, manufactured by Ina Shokuhin Kogyo) in 45 ml of 0.1 N HCl was treated at 95° C. for 13 minutes. After cooling to room temperature, the suspension was neutralized with NaOH and filtered through 0.22 μm MILLEX-GP filter (manufactured by Milipore, SLGPR25LS). […] Namely, 10 μl of 25 μg/ml LPS and 10 μl of a 20-fold dilution of the sample mentioned above were added to wells of a 48 well microtiter plate containing RAW264.7 cells which had been incubated in the wells. The measurement was carried out with the culture medium. As control groups, a group to which LPS was not added, a group to which a sample was not added and a group to which 2.5 mM citric acid was added were provided. All the measurement were carried out in duplicate.

HL-60 cells [1] = test: antiproliferation assay, MTT method, absorbance at 590 nm; format: cell-based, human; conditions: for antiproliferation activity against HL-60 cells (in words): preparations and fractions, compared with control to which water was added
HL-60 cells [2] = test: apoptosis-inducing assay, cell morphology under an optical microscope; format: cell-based, human
Procedure: Human promyelocytic leukemia cell HL-60 (ATCC CCL-240) was incubated at 37° C. in RPMI 1640 medium (manufactured by Gibco) supplemented with 10% of fetal bovine serum (JRH Bioscience) which had been treated at 56° C. for 30 minutes, and suspended in the same medium at a concentration of 500 cells/90 μl. Each 90 μl portion of the suspension was distributed into each well of a 96 well plate (manufactured by Falcon). To the suspension in each well was added 10 μl of the above-mentioned acid decomposition solution, a 10-fold dilution of the solution or water, and incubated with 5% CO2 at 37° C. After 24 hour and 48 hour from the initiation of the incubation, the cell morphology was observed under an optical microscope. Then, according to the MTT method described in “Apoptosis Jikken Protocol” (Syuzyun-sha, Tanuma, Seiichi ed., pp. 156 (1994)), 5 mg/ml of 3-(4,5-dimethylthiazole-2-yl)-2,5-diphenyltetrazolium bromide (manufactured by Sigma) and 10 μl of phosphate buffered saline solution were added to the culture and the incubation was continued for additional 4 hours. Then, 100 μl of 2-propanol containing 0.04 N hydrochloric acid was added to the culture, and the mixture was thoroughly stirred. An absorbance at 590 nm was measured and the number of viable cells was calculated from the absorbance measured for each of the wells, which was compared each other.
Each elution peak was fractionated, collected, evaporated to dryness under reduced pressure and then dissolved in 300 μl of water. Each fraction was sterilized by filtration and its 10 μl portion was placed in a well of a 96 well microtiter plate. Then, 90 μl of RPMI 1640 medium (manufactured by Nissui) containing 10% fetal bovine serum (manufactured by Gibco) and 5,000 HL-60 cells (ATCC CCL-240) was added thereto, followed by incubation at 37° C. for 48 hours with 5% CO2. The cell morphology was observed under an optical microscope. Then, 5 mg/ml 3-(4,5-dimethylthiazole-2-yl)-2,5-diphenyltetrazolium bromide and 10 μl of phosphate buffered saline solution were added thereto and the incubation was continued for additional 4 hours. To the culture was added 100 μl of 2-propanol containing 0.04 N hydrochloric acid and the resultant mixture was thoroughly stirred. The absorbance at 590 nm was measured to determine a cell proliferation rate.

[3] = tested on: lipid peroxide radical production; test: inhibition of lipid peroxide radical production (tert-butyl hydroperoxide, bacterial growth readout); format: cell-based, Staphylococcus aureus 3A; design: key to growth of the bacterium (activity of inhibiting lipid peroxide radical production): + represents the sample in which the growth of the bacterium was observed; −represents the sample in which the growth of the bacterium was not observed
Procedure: Staphylococcus aureus 3A (National Collection Of Type Culture, NCTC 8319) was inoculated into 5 ml of brain heart infusion medium (manufactured by Difco, 0037-17-8) and cultured at 37° C. overnight. The bacterial cells were collected by centrifugation, washed with phosphate buffered saline 3 times and then suspended in phosphate buffered saline at a concentration of 1×10^7 colony forming units/ml. A mixture of 100 μl of the cell suspension, 100 μl of an aqueous sample solution, 100 μl of aqueous 1 mg/ml methemoglobin (manufactured by Sigma M9250) solution, 600 μl of phosphated buffered saline and 100 μl of aqueous 50 mM tert-butyl hydroperoxide (manufactured by Katayama Kagaku, 03-4990) solution were reacted at 37° C. for 30 minutes. To the reaction mixture was added 1 ml of 2×NMP medium [prepared by dissolving 8 g of nutrient broth (manufactured by Difco, 0003-01-6), 5 g of trypton (manufactured by Difco, 0123-17-3), 5 g of NaCl, 10 g of mannitol (manufactured by Nacalai Tesque, 213-03) and 0.035 g of phenol red (manufactured by Nacalai Tesque, 268-07) in distilled water to make the volume up to 500 ml. The pH was adjusted to 7.5 with NaOH and then the mixture was sterilized by filtration] to stop the reaction. The resultant mixture was diluted every 3-folds with NMP medium (prepared by diluting 2×NMP medium 2-folds with sterilized water) to prepare 12 serial dilutions and 160 μl of each dilution was placed in each well of a 96-well microtiter plate. The plate was incubated at 37° C. overnight.
In Table 14, + represents the sample in which the growth of the bacterium was observed, and −represents the sample in which the growth of the bacterium was not observed. The concentration shown in the uppermost line of the table is that of the sample in the reaction mixture in which the sample was reacted with tert-butyl hydroperoxide and the bacterial cells at 37° C. for 30 minutes.

HL-60 cells [4] = test: viable cell count with Trypan Blue under a microscope; format: cell-based, human; conditions: final concentration 250 μM or 125 μM
Procedure: Agarobiose, agarotetraose, agarohexaose and agarooctaose (hereinafter, sometimes, these oligosuccharaides are referred to as agarooligosaccharides) obtained in Example 5 were dissolved in water at a concentration of 2.5 mM or 1.25 mM separately, and were sterilized by filtration. HL-60 cells were suspended in RPMI 1640 medium containing 10% fetal bovine serum at a concentration of 2.5×10^5 cells/4.5 ml and to this suspension was added 0.5 ml of each of the oligosaccharide solutions. The resultant mixture were incubated with 5% CO2 at 37° C. for 24 hours or 48 hours. A part of the cell culture was taken up, followed by addition of Trypan Blue thereto and observing under a microscope to count the number of viable cells.
That is, FIG. 14 illustrates the relation between the incubation time and the number of viable cells when HL-60 cells were cultured with addition of one of the oligosaccharides at the final concentration of 250 μM. FIG. 15 illustrates the relation between the incubation time and the number of viable cells when HL-60 cells were cultured with addition of one of the oligosaccharides at the final concentration of 125 μM. In FIGS. 14 and 15, the horizontal axes represent the incubation time (hrs.) and the vertical axes represent the number of viable cells (× 10^5/5 ml). The closed circle (●) represents the addition of water (control), the open diamond (⋄) represents the addition of agarobiose, the open circle (◯) represents the addition of agarotetraose, the open triangle (Δ) represents the addition of agarohexaose and the open square (□) represents the addition of agarooctaose.

O=C[C@H](O)[C@H]1OC[C@@H](O)[C@@H]1O [3,6-anhydro-D-galactose]
inhibition of NO production (in words) (RAW 264.7 cells): inhibited NO production

O=C[C@@H](O)[C@@H]1OC[C@H](O)[C@H]1O [3,6-anhydro-L-galactose]
absorbance at 590 nm relative to that of the control group to which water was added (HL-60 cells [1]; HL-60, final concentration of 1 mM): less than one-half | apoptosis corpuscles (HL-60 cells [2]; final concentration of 1 mM): apoptosis corpuscles were observed

O=C[C@H](O)[C@@H](O)[C@@H](O)[C@H](O)CO [Galactose, galactose, reference compound]
growth of the bacterium (activity of inhibiting lipid peroxide radical production) ([3]; 0.1 mM sample in the reaction mixture): − | growth of the bacterium (activity of inhibiting lipid peroxide radical production) ([3]; 1 mM sample in the reaction mixture): − | inhibition of NO production (in words) (RAW 264.7 cells): did not

OC[C@H]1OC(O)[C@H](O)[C@@H](O[C@@H]2O[C@H]3CO[C@@H]([C@@H]2O)[C@@H]3O)[C@H]1O (stereo partly drawn) [neoagarobiose, reference compound]
inhibition of NO production induced by LPS (in words) (RAW 264.7 cells; RAW 264.7, 10 μl of 5000 to 50 μM solution per 500 μl well, 12 hours): did not

CO[C@H](C=O)[C@@H]1OC[C@H](O)[C@H]1O[C@@H]1O[C@H](CO)[C@H](O)[C@H](O)[C@H]1O [β-D-galactopyranosyl-(1→4)-3,6-anhydro-2-O-methyl-L-galactose]
antiproliferation activity against HL-60 cells (in words) (HL-60 cells [1]): strong antiproliferation activity | antiproliferation activity against HL-60 cells (in words) (HL-60 cells [1]; listed as group 3): an antiproliferation activity was observed

O=C[C@H](O)[C@H]1OC[C@@H](O)[C@@H]1O[C@@H]1O[C@H](CO)[C@H](OS(=O)(=O)O)[C@H](O)[C@H]1O [κ-carabiose, β-D-galactopyranosyl-4-sulfate-(1→4)-3,6-anhydro-D-galactose]
cell proliferation suppressed as compared with the control group (HL-60 cells [1]; HL-60, κ-carabiose at 156 μM): about 70% | antiproliferation activity against HL-60 cells (in words) (HL-60 cells [1]): cell proliferation was inhibited | apoptosis corpuscles under an optical microscope (HL-60 cells [2]; 156 μM): apoptosis corpuscles were observed | apoptosis-inducing activity (apoptosis corpuscles, in words) (HL-60 cells [2]; preparations and fractions): apoptosis corpuscles were observed

agarooctaose
apoptosis corpuscles (HL-60 cells [4]): apoptosis corpuscles were observed | number of viable cells as compared with the group to which water was added (HL-60 cells [4]; 24 hours or 48 hours): decreased
